Test results reported in patent US20120277197A1, “TIGECYCLINE FORMULATIONS” (WYETH, priority 2008, published 2012).

Columns and labels:
[1] = simple oral immediate release prototypes, animals; cited from earlier work
[2] = Effect of pH on stability of tigecycline 0.50 mg/ml in Normal Saline, in a flask at 25° C.; assay type: physicochemical
Procedure: The effect of pH on the stability of tigecycline formulations having a concentration of 0.50 mg tigecycline/ml in a Normal Saline solution was studied by analyzing the variation of tigecycline content, total impurity content, and the concentration of tigecycline epimer at different pH values, either in the presence of air or under an atmosphere having an oxygen content of less than 1 ppm, in a flask at 25° C.

[3] = pH 3, 0 h, in the presence of air
[4] = pH 3, 8 h, in the presence of air
[5] = pH 3, 24 h, in the presence of air
[6] = pH 3, 72 h, in the presence of air
[7] = pH 3.5, 0 h, in the presence of air
[8] = pH 3.5, 8 h, in the presence of air
[9] = pH 3.5, 24 h, in the presence of air
[10] = pH 3.5, 72 h, in the presence of air
[11] = pH 4.0, 0 h, in the presence of air
[12] = pH 4.0, 24 h, in the presence of air
[13] = pH 4.0, 72 h, in the presence of air
[14] = pH 4.5, 0 h, in the presence of air
[15] = pH 4.5, 8 h, in the presence of air
[16] = pH 4.5, 24 h, in the presence of air

In the case of CN(C)c1cc(NC(=O)CNC(C)(C)C)c(O)c2c1C[C@H]1C[C@H]3[C@H](N(C)C)C(O)=C(C(N)=O)C(=O)[C@@]3(O)C(O)=C1C2=O [tigecycline, Tigecycline], the bioavailability [1] is listed as “poor bioavailability”, the “pH at which the solution is most stable, based on total impurity content and tigecycline content” value ([2]; in the presence of air) is listed as 4.5-5.0 and the “pH at which the solution is most stable” value ([2]; oxygen <1 ppm) is listed as 4.5-6.0. For the same molecule, the “Total impurity content as a % of initial weight of tigecycline” value (shortened to “Total impurity content as a %”) [2, 3] was 0.36%, the “Total tigecycline epimer content as a % of initial weight of tigecycline” value (shortened to “Total tigecycline epimer content as a %”) [2, 3] was 0.19% and the “Percentage of tigecycline remaining” value ([2]; pH 3.0, 0 h, in the presence of air) was 100%. For the same molecule, the “Total impurity content as a %” value ([2]; pH 3, 0 h, oxygen <1 ppm) was 0.258%, the “Total tigecycline epimer content as a %” value ([2]; pH 3, 0 h, oxygen <1 ppm) was 0.152% and the “Percentage of tigecycline remaining” value ([2]; pH 3.0, 0 h, oxygen <1 ppm) was 100.0%. The “Total impurity content as a %” value [2, 4] was 0.907%, the “Total tigecycline epimer content as a %” value [2, 4] was 0.83% and the “Percentage of tigecycline remaining” value ([2]; pH 3.0, 8 h, in the presence of air) was 100%. For the same molecule, the “Total impurity content as a %” value ([2]; pH 3, 8 h, oxygen <1 ppm) was 0.628%, the “Total tigecycline epimer content as a %” value ([2]; pH 3, 8 h, oxygen <1 ppm) was 0.485% and the “Percentage of tigecycline remaining” value ([2]; pH 3.0, 8 h, oxygen <1 ppm) was 99.55%. The “Total impurity content as a %” value [2, 5] was 2.564%, the “Total tigecycline epimer content as a %” value [2, 5] was 2.27% and the “Percentage of tigecycline remaining” value ([2]; pH 3.0, 24 h, in the presence of air) was 98%. For the same molecule, the “Total impurity content as a %” value ([2]; pH 3, 24 h, oxygen <1 ppm) was 2.391%, the “Total tigecycline epimer content as a %” value ([2]; pH 3, 24 h, oxygen <1 ppm) was 2.267% and the “Percentage of tigecycline remaining” value ([2]; pH 3.0, 24 h, oxygen <1 ppm) was 98.08%. For the same molecule, the “Total impurity content as a %” value [2, 6] was 8.3%, the “Total tigecycline epimer content as a %” value [2, 6] was 7.58% and the “Percentage of tigecycline remaining” value ([2]; pH 3.0, 72 h, in the presence of air) was 93%. The “Total impurity content as a %” value ([2]; pH 3, 72 h, oxygen <1 ppm) was 7.853%, the “Total tigecycline epimer content as a %” value ([2]; pH 3, 72 h, oxygen <1 ppm) was 7.651% and the “Percentage of tigecycline remaining” value ([2]; pH 3.0, 72 h, oxygen <1 ppm) was 92.24%. For the same molecule, the “Percentage of tigecycline remaining” value [2, 7] was 100%, the “Total impurity content as a %” value [2, 7] was 0.35% and the “Total tigecycline epimer content as a %” value [2, 7] was 0.18%. For the same molecule, the “Percentage of tigecycline remaining” value ([2]; pH 3.5, 0 h, oxygen <1 ppm) was 100.0%, the “Total impurity content as a %” value ([2]; pH 3.5, 0 h, oxygen <1 ppm) was 0.245% and the “Total tigecycline epimer content as a %” value ([2]; pH 3.5, 0 h, oxygen <1 ppm) was 0.133%. The “Percentage of tigecycline remaining” value [2, 8] was 100%, the “Total impurity content as a %” value [2, 8] was 0.737% and the “Total tigecycline epimer content as a %” value [2, 8] was 0.47%. For the same molecule, the “Percentage of tigecycline remaining” value ([2]; pH 3.5, 8 h, oxygen <1 ppm) was 100.19%, the “Total impurity content as a %” value ([2]; pH 3.5, 8 h, oxygen <1 ppm) was 0.559% and the “Total tigecycline epimer content as a %” value ([2]; pH 3.5, 8 h, oxygen <1 ppm) was 0.383%. The “Percentage of tigecycline remaining” value [2, 9] was 100%, the “Total impurity content as a %” value [2, 9] was 1.727% and the “Total tigecycline epimer content as a %” value [2, 9] was 1.45%. The “Percentage of tigecycline remaining” value ([2]; pH 3.5, 24 h, oxygen <1 ppm) was 99.26%, the “Total impurity content as a %” value ([2]; pH 3.5, 24 h, oxygen <1 ppm) was 1.478% and the “Total tigecycline epimer content as a %” value ([2]; pH 3.5, 24 h, oxygen <1 ppm) was 1.351%. The “Percentage of tigecycline remaining” value [2, 10] was 95%, the “Total impurity content as a %” value [2, 10] was 5.521% and the “Total tigecycline epimer content as a %” value [2, 10] was 4.83%. For the same molecule, the “Percentage of tigecycline remaining” value ([2]; pH 3.5, 72 h, oxygen <1 ppm) was 96.03%, the “Total impurity content as a %” value ([2]; pH 3.5, 72 h, oxygen <1 ppm) was 4.913% and the “Total tigecycline epimer content as a %” value ([2]; pH 3.5, 72 h, oxygen <1 ppm) was 4.671%. For the same molecule, the “Percentage of tigecycline remaining” value [2, 11] was 100%, the “Total impurity content as a %” value [2, 11] was 0.32% and the “Total tigecycline epimer content as a %” value [2, 11] was 0.189%. The “Percentage of tigecycline remaining” value [2, 12] was 100%, the “Total impurity content as a %” value [2, 12] was 1.06% and the “Total tigecycline epimer content as a %” value [2, 12] was 0.90%. For the same molecule, the “Percentage of tigecycline remaining” value [2, 13] was 98%, the “Total impurity content as a %” value [2, 13] was 3.129% and the “Total tigecycline epimer content as a %” value [2, 13] was 2.90%. The “Percentage of tigecycline remaining” value [2, 14] was 100%, the “Total impurity content as a %” value [2, 14] was 0.30% and the “Total tigecycline epimer content as a %” value [2, 14] was 0.16%. For the same molecule, the “Percentage of tigecycline remaining” value ([2]; pH 4.5, 0 h, oxygen <1 ppm) was 100.0%, the “Total impurity content as a %” value ([2]; pH 4.5, 0 h, oxygen <1 ppm) was 0.232% and the “Total tigecycline epimer content as a %” value ([2]; pH 4.5, 0 h, oxygen <1 ppm) was 0.116%. The “Percentage of tigecycline remaining” value [2, 15] was 100%, the “Total impurity content as a %” value [2, 15] was 0.483% and the “Total tigecycline epimer content as a %” value [2, 15] was 0.30%. The “Percentage of tigecycline remaining” value ([2]; pH 4.5, 8 h, oxygen <1 ppm) was 99.69%, the “Total impurity content as a %” value ([2]; pH 4.5, 8 h, oxygen <1 ppm) was 0.368% and the “Total tigecycline epimer content as a %” value ([2]; pH 4.5, 8 h, oxygen <1 ppm) was 0.233%. For the same molecule, the “Percentage of tigecycline remaining” value [2, 16] was 99%, the “Total impurity content as a %” value [2, 16] was 0.75% and the “Total tigecycline epimer content as a %” value [2, 16] was 0.65%.
